Data set [1] in a line: Half life in Sprague-Dawley rat at 2 mg/kg, iv. The settings on record: in vivo. It counts as ADME, organism-based.
Data set [2] is described as follows: Stability in human liver microsomes assessed as parent compound remaining at 1 uM incubated for 10 mins. It is filed as ADME, Microsome. The following applies: read-out: Stability. (Liver microsomes are a subcellular fraction often used to study metabolism.)
The nature of data set [3]: Oral bioavailability in dog at 10 mg/kg. It is filed as ADME, organism-based, Canis lupus familiaris. The following applies: in vivo.
Data set [4] is described as follows: Half life in C57 mouse at 5 mg/kg, iv. It counts as ADME, organism-based. The settings on record: in vivo.
Data set [5] can be described thus: Clearance in Sprague-Dawley rat at 2 mg/kg, iv or 10 mg/kg, po. It counts as ADME, organism-based. The following applies: in vivo.
A short description of data set [6]: Antagonist activity at GCGR in dog hepatocytes assessed as inhibition of glucagon-induced cAMP by LANCE TR-FRET assay. It is filed as cell-based, Canis lupus familiaris.
A short description of data set [7]: Cmax in dog at 2 mg/kg, iv or 10 mg/kg, po. It is filed as ADME, organism-based, Canis lupus familiaris. The settings on record: in vivo.
In another data set the target is Cytochrome P450 2D6 (Homo sapiens, UniProt P10635). Put plainly: Inhibition of CYP2D6 (unknown origin) using dextromethorphan as substrate. It counts as ADME.
Cytochrome P450 2D6, sequence (P10635 whole entry): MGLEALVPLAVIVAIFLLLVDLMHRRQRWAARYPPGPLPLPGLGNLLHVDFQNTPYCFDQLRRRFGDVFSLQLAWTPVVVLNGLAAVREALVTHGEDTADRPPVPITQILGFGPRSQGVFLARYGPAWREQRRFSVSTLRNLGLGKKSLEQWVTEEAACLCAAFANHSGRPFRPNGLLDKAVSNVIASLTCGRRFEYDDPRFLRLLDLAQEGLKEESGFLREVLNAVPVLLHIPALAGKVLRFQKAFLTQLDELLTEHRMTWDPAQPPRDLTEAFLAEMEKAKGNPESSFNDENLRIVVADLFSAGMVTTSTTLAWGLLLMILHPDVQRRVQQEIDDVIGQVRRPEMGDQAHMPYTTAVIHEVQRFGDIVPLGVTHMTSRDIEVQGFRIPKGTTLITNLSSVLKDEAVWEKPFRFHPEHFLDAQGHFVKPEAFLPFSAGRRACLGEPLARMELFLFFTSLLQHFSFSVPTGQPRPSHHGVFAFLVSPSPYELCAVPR
The next data set concerns the target Cytochrome P450 2C19 (Homo sapiens, UniProt P33261). Description: Inhibition of CYP2C19 (unknown origin) using S-Mephenytoin as substrate. It is filed as ADME.
The nature of data set [8]: Clearance in C57 mouse at 5 mg/kg, iv or 20 mg/kg, po. It is filed as ADME, organism-based. The following applies: in vivo.
Data set [9] in a line: Volume of distribution at steady state in C57 mouse at 5 mg/kg, iv or 20 mg/kg, po. It is filed as ADME, organism-based. The settings on record: in vivo, read-out: Vdss.
The test system of data set [10] is Canis familiaris. Description: Antidiabetic activity in Beagle dog assessed as reduction in blood glucose AUC administered orally via gavage as single dose 90 mins prior to glucagon challenge by glucometer analysis. It counts as functional, organism-based. The settings on record: Canis lupus familiaris.
A short description of data set [11]: Oral bioavailability in C57 mouse at 20 mg/kg. The following applies: in vivo. It counts as ADME, organism-based.
Data set [12] can be described thus: Clearance in dog at 2 mg/kg, iv or 10 mg/kg, po. It is filed as ADME, organism-based, Canis lupus familiaris. The following applies: in vivo.
A short description of data set [13]: Stability in dog liver microsomes assessed as parent compound remaining at 1 uM incubated for 10 mins. It is filed as ADME, Canis lupus familiaris, Microsome. The following applies: liver microsomes, read-out: Stability.
Data set [14] can be described thus: Cmax in Sprague-Dawley rat at 2 mg/kg, iv or 10 mg/kg, po. The settings on record: in vivo. It counts as ADME, organism-based.
Data set [15] can be described thus: Stability in mouse liver microsomes assessed as parent compound remaining at 1 uM incubated for 10 mins. It counts as ADME, Microsome. The following applies: liver microsomes, read-out: Stability.
Data set [16] is described as follows: Cmax in C57 mouse at 5 mg/kg, iv or 20 mg/kg, po. It counts as ADME, organism-based. The following applies: in vivo.
The nature of data set [17]: AUClast in C57 mouse at 5 mg/kg, iv or 20 mg/kg, po. It counts as ADME, organism-based. The settings on record: in vivo.
Data set [18] concerns the target T1, Cytochrome P450 3A4 (Homo sapiens, UniProt P08684). Put plainly: Inhibition of CYP3A4 (unknown origin) using midazolam as substrate. It is filed as ADME.
Data set [19] has as its system Canis familiaris. Put plainly: Antidiabetic activity in Beagle dog assessed as reduction in blood glucose AUC at 10 mg/kg, po administered via gavage as single dose 90 mins prior to glucagon challenge by glucometer analysis. It is filed as functional, organism-based. The settings on record: Canis lupus familiaris.
For data set [20], the system named is Canis familiaris. Description: Antidiabetic activity in Beagle dog assessed as reduction in blood glucose level at 10 mg/kg, po administered via gavage as single dose 90 mins prior to glucagon challenge measured up to 60 mins post glucagon challenge by glucometer analysis. The following applies: Canis lupus familiaris. It is filed as functional, organism-based.

The target in the next data set is T2, Cytochrome P450 1A2 (Homo sapiens, UniProt P05177).
T2 sequence (P05177 whole entry): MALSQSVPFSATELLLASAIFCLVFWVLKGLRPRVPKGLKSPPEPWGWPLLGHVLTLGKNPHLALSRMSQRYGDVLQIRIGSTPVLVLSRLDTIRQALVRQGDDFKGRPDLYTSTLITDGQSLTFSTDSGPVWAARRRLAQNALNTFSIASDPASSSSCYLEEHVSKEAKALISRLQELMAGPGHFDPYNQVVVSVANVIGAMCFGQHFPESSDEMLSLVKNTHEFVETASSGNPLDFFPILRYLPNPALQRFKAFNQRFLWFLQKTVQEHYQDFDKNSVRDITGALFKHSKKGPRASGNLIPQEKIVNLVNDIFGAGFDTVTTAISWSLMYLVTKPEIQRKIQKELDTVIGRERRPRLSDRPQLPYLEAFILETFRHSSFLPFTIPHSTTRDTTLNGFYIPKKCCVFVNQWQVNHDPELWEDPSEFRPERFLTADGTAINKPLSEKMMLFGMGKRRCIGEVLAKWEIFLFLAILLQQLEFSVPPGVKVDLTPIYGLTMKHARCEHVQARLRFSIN
Description: Inhibition of CYP1A2 (unknown origin) using phenacetin as substrate. It counts as ADME.

Data set [21] is described as follows: Half life in Sprague-Dawley rat at 10 mg/kg, po. It is filed as ADME, organism-based. The following applies: in vivo.
Data set [22] in a line: Volume of distribution at steady state in dog at 2 mg/kg, iv or 10 mg/kg, po. The following applies: in vivo, read-out: Vdss. It counts as ADME, organism-based, Canis lupus familiaris.
Data set [23] is described as follows: Half life in dog at 10 mg/kg, po. The following applies: in vivo. It counts as ADME, organism-based, Canis lupus familiaris.
Data set [24] in a line: Half life in dog at 2 mg/kg, iv. It counts as ADME, organism-based, Canis lupus familiaris. The settings on record: in vivo.
The next data set has as its target Cytochrome P450 2C9 (Homo sapiens, UniProt P11712). Description: Inhibition of CYP2C9 (unknown origin) using tolbutamide as substrate. It counts as ADME.
Data set [25] is described as follows: AUClast in dog at 2 mg/kg, iv or 10 mg/kg, po. It counts as ADME, organism-based, Canis lupus familiaris. The following applies: in vivo.
The nature of data set [26]: Half life in C57 mouse at 20 mg/kg, po. It is filed as ADME, organism-based. The settings on record: in vivo.
Data set [27] can be described thus: Oral bioavailability in Sprague-Dawley rat at 10 mg/kg. It counts as ADME, organism-based. The following applies: in vivo.
Data set [28] can be described thus: Protein binding in human plasma at 1 uM. The settings on record: read-out: PPB. It counts as ADME, cell-free.
Data set [29] deals with T1, Cytochrome P450 3A4. Description: Inhibition of CYP3A4 (unknown origin) using testosterone as substrate. It counts as ADME.
Data set [30] can be described thus: Stability in rat liver microsomes assessed as parent compound remaining at 1 uM incubated for 10 mins. It is filed as ADME, Microsome. The settings on record: read-out: Stability.
A short description of data set [31]: AUClast in Sprague-Dawley rat at 2 mg/kg, iv or 10 mg/kg, po. It is filed as ADME, organism-based. The following applies: in vivo.
A short description of data set [32]: Volume of distribution at steady state in Sprague-Dawley rat at 2 mg/kg, iv or 10 mg/kg, po. The settings on record: in vivo, read-out: Vdss. It counts as ADME, organism-based.
For a further data set, the target named is Glucagon receptor (Homo sapiens, UniProt P47871). Description: Potency index, ratio of Ki of 3-(4-((1R)-1-(4-methoxy-5-(2-methyl-4-(trifluoromethyl)phenyl)-1H-indazol-1-yl)-3-methylbutyl)benzamido)propanoic acid to Ki of compound for human full length GCGR transfected in HEK293 cells assessed as reduction in glucagon-induced cAMP response by LANCE TR-FRET assay. It is filed as functional, cell-based.
Glucagon receptor, sequence (P47871 whole entry): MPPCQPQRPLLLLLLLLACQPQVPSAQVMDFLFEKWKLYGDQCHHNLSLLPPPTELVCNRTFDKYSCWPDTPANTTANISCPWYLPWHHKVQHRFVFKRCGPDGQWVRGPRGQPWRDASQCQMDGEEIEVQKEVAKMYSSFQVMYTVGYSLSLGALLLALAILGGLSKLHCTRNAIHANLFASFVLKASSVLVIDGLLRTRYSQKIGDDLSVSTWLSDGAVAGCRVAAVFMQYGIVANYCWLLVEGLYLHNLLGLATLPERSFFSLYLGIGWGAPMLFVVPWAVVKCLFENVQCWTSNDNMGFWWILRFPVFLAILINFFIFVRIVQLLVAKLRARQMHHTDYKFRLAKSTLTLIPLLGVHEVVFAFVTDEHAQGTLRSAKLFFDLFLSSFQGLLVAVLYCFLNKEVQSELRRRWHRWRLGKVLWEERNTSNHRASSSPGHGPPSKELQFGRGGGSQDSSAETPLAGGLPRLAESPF

Calls of active or inactive are those of the source. No cut-off for these calls is given here. A value given as a limit tells only on which side of the number the result lay.

T1 sequence (P08684 whole entry): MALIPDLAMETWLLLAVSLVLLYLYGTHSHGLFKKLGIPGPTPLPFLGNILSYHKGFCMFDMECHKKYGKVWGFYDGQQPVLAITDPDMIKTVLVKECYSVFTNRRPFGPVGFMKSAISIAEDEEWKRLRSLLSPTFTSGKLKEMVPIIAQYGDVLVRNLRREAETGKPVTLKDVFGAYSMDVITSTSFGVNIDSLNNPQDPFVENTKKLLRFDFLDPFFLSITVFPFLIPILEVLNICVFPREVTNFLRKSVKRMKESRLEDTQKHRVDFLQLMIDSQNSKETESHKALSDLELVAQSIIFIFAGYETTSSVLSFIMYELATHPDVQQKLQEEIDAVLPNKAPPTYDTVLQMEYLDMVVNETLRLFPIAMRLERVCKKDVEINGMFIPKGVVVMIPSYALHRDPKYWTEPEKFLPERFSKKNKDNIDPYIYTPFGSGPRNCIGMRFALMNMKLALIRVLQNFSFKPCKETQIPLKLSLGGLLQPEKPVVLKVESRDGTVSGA
Cytochrome P450 2C19, sequence (P33261 whole entry): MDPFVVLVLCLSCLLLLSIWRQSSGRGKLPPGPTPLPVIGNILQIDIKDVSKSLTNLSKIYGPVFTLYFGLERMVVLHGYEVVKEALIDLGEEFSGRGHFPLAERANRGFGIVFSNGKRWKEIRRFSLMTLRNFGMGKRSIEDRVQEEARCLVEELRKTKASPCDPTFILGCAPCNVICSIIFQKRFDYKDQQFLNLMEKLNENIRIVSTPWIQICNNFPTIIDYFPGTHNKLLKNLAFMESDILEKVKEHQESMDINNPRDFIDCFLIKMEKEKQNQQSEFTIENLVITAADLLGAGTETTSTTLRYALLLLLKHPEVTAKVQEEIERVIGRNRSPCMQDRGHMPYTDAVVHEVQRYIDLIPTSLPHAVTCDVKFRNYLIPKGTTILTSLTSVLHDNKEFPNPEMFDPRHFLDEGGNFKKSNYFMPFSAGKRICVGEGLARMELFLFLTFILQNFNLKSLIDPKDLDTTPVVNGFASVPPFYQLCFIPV
Cytochrome P450 2C9, sequence (P11712 whole entry): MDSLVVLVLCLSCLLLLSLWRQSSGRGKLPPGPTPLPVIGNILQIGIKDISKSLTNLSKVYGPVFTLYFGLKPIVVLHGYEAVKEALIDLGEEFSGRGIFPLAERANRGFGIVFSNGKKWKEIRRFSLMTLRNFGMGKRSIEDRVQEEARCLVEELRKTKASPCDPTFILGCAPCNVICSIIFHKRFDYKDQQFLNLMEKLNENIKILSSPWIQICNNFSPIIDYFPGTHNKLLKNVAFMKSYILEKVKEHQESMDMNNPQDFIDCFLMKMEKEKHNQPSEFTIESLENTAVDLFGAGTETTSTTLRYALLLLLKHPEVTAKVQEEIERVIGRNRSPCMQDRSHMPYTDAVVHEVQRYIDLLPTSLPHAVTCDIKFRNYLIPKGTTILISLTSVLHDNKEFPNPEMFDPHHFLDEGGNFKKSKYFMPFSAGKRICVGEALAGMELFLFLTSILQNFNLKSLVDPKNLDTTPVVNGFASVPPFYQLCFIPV

On to `Cc1cc2c(cnn2[C@@H](CC(C)C)c2ccc(C(=O)NCCC(=O)O)cc2)cc1-c1ccc(C(F)(F)F)cc1Cl`, for which the half-life (commonly how long it takes for the measured level to halve) in data set [1] is 3.6 h; in [4], 7.8 h; in data set [21], 7.1 h; in [23], 18.9 h; in data set [24] it was 16 h; in [26], 9.1 h. Besides, the remaining at 10 min, 1 µM in data set [2] was found to be 62%; in [13] it was 65%; in data set [15], 99%; in [30], 67%. For the same compound, the figures for the bioavailability in [3], in data set [11] and in data set [27] were 57.3%, 121% and 35.4%, respectively. For the same compound, the clearance in data set [5] stood at 18.7 mL/min/kg; in data set [8] it was 2.47 mL/min/kg; in data set [12], 0.21 mL/min/kg. For the same compound, the Ki (usually a dissociation constant, usually derived from enzyme kinetics or from competition with a known ligand) in [6] stood at 0.02 µM. The Cmax – broadly, the peak of the concentration-time curve – amounted to 34.1 µM in [7], 0.5 µM in [14] and 15.6 µM in [16]. Also, the IC50 against Cytochrome P450 2D6, on Cytochrome P450 2C19, at Cytochrome P450 3A4 [18], on Cytochrome P450 1A2, at Cytochrome P450 2C9 and at Cytochrome P450 3A4 [29] was > 10 µM each time. In addition, the Vd in data set [9] came to 1.45 L/kg; in [22] it was 0.27 L/kg; in data set [32], 3.32 L/kg. In addition, the inhibition entry with Canis familiaris [10] was “Dose-dependent effect”. For the same compound, the exposure AUC(0-t) (in general, exposure summed from dosing to a finite time, without extrapolation to infinity) in data set [17] turned out to be 254 µM·h; in data set [25], 544 µM·h; in data set [31] it was 5.6 µM·h. Further, the inhibition result in the data set with Canis familiaris [19] and with Canis familiaris [20] was “Active” each time. Further, the fraction unbound at 1 µM in data set [28] turned out to be 0.0001.

For the compound `COc1c(-c2ccc(C(F)(F)F)cc2C)ccc2c1cnn2[C@@H](CC(C)C)c1ccc(C(=O)NCCC(=O)O)cc1`, the remaining at 10 min, 1 µM is 95% in data set [2], 69% in [13], 83% in [15] and 81% in data set [30]. For the same compound, the Ratio Ki at Glucagon receptor came out at 84.

Values taken from ChEMBL document CHEMBL4396971, “Discovery of potent and orally bioavailable indazole-based glucagon receptor antagonists for the treatment of type 2 diabetes” (Bioorg Med Chem Lett, 2019).
